Measured values: ChEMBL document CHEMBL4177521, “Therapeutic Potential of Fatty Acid Amide Hydrolase, Monoacylglycerol Lipase, and N-Acylethanolamine Acid Amidase Inhibitors” (J Med Chem, 2017)

Experiments:
[1] = Half life in rat plasma; assay type: ADME, cell-free
[2] = Half life in mouse plasma; assay type: ADME, cell-free
[3] = Half life in rat liver microsomes; assay type: ADME, microsome
[4] = Half life in mouse liver microsomes; assay type: ADME, microsome
[5] = Half life in CD1 mouse plasma at 3 mg/kg, iv; assay type: ADME, organism-based
[6] = Cmax in CD1 mouse plasma at 3 mg/kg, iv; assay type: ADME, organism-based; parameters: dose 3 mg/kg, route intravenous; conditions: in vivo
[7] = target: T1, Fatty-acid amide hydrolase 1 (Mus musculus, UniProt O08914); assay: Inhibition of mouse brain membrane FAAH preincubated for 10 mins followed by 14C-oleamide substrate addition measured up to 60 mins by TLC analysis
T1 sequence (O08914 whole entry): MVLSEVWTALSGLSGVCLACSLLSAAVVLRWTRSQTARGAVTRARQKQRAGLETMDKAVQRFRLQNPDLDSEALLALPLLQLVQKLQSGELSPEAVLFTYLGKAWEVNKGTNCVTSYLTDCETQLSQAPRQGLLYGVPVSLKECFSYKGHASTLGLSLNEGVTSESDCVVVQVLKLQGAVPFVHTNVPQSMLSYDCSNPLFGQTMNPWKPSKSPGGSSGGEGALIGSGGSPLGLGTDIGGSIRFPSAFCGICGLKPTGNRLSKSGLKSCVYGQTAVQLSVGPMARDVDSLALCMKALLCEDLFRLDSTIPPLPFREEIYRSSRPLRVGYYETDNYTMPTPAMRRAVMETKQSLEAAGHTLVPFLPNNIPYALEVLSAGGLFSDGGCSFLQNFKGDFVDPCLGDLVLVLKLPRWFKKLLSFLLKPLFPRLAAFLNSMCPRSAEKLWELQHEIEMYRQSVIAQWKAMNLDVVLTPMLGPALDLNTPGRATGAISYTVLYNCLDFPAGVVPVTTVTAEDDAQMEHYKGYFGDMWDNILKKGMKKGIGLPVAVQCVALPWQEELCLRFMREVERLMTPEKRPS

[8] = Oral bioavailability in monkey at 10 mg/kg; assay type: ADME, organism-based, Macaca mulatta; conditions: rhesus monkey, in vivo
[9] = target: Cannabinoid receptor 1 (Homo sapiens, UniProt P21554); assay: Antagonist activity at CB1R (unknown origin); assay type: functional
[10] = Half life in monkey at 10 mg/kg, po or 1 mg/kg, iv; assay type: ADME, organism-based, Macaca mulatta; conditions: rhesus monkey, in vivo
[11] = target: T2, Fatty-acid amide hydrolase 1 (Homo sapiens, UniProt O00519); assay: Inhibition of FAAH (unknown origin)
T2 sequence (O00519 whole entry): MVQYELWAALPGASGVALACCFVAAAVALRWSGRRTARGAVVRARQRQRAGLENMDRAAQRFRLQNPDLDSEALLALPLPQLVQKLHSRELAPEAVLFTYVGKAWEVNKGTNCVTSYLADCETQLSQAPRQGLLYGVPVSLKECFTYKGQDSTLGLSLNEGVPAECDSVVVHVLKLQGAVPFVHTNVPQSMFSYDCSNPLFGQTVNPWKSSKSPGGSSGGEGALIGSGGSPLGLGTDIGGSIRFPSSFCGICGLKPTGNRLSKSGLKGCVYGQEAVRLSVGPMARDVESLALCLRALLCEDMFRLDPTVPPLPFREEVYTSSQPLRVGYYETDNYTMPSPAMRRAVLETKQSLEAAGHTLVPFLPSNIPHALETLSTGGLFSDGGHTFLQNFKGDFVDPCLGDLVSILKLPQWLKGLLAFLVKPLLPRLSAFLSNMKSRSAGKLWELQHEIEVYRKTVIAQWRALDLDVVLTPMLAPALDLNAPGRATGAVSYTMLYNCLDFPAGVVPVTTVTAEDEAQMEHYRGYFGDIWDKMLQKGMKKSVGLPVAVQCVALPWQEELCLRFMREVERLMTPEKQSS

[12] = target: T3, N-acylethanolamine-hydrolyzing acid amidase (Homo sapiens, UniProt Q02083); assay: Time dependent inhibition of recombinant human NAAA expressed in HEK293 cells by liquid scintillation counting method; assay type: cell-based
T3 sequence (Q02083 whole entry): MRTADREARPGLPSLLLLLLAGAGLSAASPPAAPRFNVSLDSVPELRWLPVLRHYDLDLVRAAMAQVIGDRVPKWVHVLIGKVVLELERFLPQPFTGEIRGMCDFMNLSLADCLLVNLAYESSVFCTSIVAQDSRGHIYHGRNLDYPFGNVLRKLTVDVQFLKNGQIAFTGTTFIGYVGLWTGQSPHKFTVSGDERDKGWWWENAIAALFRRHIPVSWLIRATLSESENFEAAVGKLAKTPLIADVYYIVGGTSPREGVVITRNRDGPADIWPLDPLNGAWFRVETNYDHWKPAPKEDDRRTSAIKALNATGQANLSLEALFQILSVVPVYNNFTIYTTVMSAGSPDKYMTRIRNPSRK

[13] = target: T3, N-acylethanolamine-hydrolyzing acid amidase; assay: Time dependent inhibition of recombinant human NAAA expressed in HEK293 cell membranes using [14C]-PEA as substrate by liquid scintillation counting method
[14] = target: T4, Fatty-acid amide hydrolase 1 (Rattus norvegicus, UniProt P97612); assay: Inhibition of Sprague-Dawley rat brain FAAH using [14C]anandamide as substrate by liquid scintillation counting method
T4 sequence (P97612 whole entry): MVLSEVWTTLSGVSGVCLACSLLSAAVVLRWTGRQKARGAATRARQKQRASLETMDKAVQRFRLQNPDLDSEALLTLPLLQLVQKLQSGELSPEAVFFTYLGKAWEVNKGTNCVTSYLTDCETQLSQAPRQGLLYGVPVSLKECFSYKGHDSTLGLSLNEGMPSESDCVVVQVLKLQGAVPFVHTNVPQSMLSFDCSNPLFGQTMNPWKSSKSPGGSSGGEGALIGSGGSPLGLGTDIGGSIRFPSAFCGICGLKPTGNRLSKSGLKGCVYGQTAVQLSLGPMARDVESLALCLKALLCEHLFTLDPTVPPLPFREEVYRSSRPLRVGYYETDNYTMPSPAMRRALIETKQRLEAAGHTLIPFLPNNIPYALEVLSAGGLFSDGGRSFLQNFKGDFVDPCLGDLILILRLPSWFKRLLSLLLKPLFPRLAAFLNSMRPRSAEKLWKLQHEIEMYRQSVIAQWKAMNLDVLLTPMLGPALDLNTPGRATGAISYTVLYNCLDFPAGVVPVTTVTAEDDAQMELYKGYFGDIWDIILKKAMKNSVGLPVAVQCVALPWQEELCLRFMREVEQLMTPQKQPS

[15] = target: T5, Fatty-acid amide hydrolase 2 (Homo sapiens, UniProt Q6GMR7); assay: Inhibition of recombinant human N-terminal FLAG-tagged/C-terminal Myc-His6 tagged FAAH2 (32 to 579 residues) expressed in COS7 cell membranes; assay type: cell-based
T5 sequence (Q6GMR7 whole entry): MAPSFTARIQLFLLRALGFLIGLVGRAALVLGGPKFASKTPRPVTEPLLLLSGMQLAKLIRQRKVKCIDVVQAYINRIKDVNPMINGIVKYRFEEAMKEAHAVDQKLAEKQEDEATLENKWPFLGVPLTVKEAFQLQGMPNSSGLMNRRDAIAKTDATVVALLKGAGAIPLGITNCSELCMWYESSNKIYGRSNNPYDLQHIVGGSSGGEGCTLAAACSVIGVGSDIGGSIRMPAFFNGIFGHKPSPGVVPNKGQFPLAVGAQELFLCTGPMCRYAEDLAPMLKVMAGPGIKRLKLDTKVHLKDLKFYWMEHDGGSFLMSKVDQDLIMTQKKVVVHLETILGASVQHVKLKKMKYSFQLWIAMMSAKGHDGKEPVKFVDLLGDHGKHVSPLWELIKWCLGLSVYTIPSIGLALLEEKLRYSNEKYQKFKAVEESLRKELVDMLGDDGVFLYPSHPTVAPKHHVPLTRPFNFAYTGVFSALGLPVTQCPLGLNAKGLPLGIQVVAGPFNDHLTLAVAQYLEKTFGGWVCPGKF

[16] = target: T6, Monoglyceride lipase (Rattus norvegicus, UniProt Q8R431); assay: Inhibition of rat MAGL preincubated for 30 mins followed by FP-Rh addition after 30 mins by gel-based ABPP assay
T6 sequence (Q8R431 whole entry): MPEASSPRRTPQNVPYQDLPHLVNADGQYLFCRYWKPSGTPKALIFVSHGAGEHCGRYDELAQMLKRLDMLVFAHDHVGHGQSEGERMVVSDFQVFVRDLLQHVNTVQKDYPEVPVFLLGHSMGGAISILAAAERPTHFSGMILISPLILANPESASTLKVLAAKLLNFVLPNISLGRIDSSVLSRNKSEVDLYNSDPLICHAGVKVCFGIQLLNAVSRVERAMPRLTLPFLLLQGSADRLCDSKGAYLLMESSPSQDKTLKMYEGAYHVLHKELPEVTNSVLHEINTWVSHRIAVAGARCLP

[17] = target: T7, Monoglyceride lipase (Homo sapiens, UniProt Q99685); assay: Inhibition of recombinant human full length MAGL expressed in HEK293 cells preincubated for 30 mins followed by FP-Rh addition after 30 mins by gel-based ABPP assay; assay type: cell-based
T7 sequence (Q99685 whole entry): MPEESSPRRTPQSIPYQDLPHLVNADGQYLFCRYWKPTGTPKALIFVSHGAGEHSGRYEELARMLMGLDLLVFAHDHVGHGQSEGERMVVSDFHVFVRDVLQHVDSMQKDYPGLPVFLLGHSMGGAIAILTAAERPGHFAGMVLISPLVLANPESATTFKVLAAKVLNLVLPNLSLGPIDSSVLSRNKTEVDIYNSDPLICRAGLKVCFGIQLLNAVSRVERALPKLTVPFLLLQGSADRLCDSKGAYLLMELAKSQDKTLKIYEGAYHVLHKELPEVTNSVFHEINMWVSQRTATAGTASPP

[18] = target: T8, Monoglyceride lipase (Mus musculus, UniProt O35678); assay: Inhibition of mouse MAGL preincubated for 30 mins followed by FP-Rh addition after 30 mins by gel-based ABPP assay
T8 sequence (O35678 whole entry): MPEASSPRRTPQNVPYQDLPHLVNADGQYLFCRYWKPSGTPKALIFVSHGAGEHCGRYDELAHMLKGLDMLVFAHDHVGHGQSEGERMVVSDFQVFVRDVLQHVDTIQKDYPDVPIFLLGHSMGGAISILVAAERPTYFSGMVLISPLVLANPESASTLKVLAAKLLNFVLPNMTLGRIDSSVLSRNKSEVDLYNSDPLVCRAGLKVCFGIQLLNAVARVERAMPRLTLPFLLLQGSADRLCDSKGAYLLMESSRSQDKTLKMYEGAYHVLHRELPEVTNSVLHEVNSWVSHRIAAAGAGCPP

[19] = target: T1, Fatty-acid amide hydrolase 1; assay: Inhibition of CD1 mouse FAAH
[20] = target: T3, N-acylethanolamine-hydrolyzing acid amidase; assay: Inhibition of NAAA (unknown origin)
[21] = target: T4, Fatty-acid amide hydrolase 1; assay: Inhibition of rat FAAH
[22] = target: T7, Monoglyceride lipase; assay: Inhibition of human MAGL
[23] = Half life in pH 5.0 buffer; assay type: physicochemical
[24] = Half life in pH 7.4 buffer; assay type: physicochemical
[25] = target: T4, Fatty-acid amide hydrolase 1; assay: Inhibition of rat FAAH expressed in HEK293 cells by LC/MS analysis; assay type: cell-based
[26] = target: T9, N-acylethanolamine-hydrolyzing acid amidase (Rattus norvegicus, UniProt Q5KTC7); assay: Inhibition of rat NAAA expressed in HEK293 cells by LC/MS analysis; assay type: cell-based
T9 sequence (Q5KTC7 whole entry): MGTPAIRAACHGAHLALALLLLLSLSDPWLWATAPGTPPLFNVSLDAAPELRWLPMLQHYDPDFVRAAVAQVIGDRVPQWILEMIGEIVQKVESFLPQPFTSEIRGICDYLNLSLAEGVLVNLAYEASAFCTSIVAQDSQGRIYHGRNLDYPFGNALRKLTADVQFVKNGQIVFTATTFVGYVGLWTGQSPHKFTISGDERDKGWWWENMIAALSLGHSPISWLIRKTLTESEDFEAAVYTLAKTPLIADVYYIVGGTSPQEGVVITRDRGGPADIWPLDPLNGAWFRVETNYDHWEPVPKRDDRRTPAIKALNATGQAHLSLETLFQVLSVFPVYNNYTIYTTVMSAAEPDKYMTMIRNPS

[27] = target: T6, Monoglyceride lipase; assay: Inhibition of rat MAGL
[28] = organism: Homo sapiens; assay: Selectivity index, ratio of IC50 for ABHD6 (unknown origin) to IC50 for human MAGL
[29] = target: T8, Monoglyceride lipase; assay: Inhibition of mouse MAGL
[30] = organism: Homo sapiens; assay: Selectivity index, ratio of IC50 for FAAH (unknown origin) to IC50 for human MAGL

Chain of Cannabinoid receptor 1 (P21554 whole entry): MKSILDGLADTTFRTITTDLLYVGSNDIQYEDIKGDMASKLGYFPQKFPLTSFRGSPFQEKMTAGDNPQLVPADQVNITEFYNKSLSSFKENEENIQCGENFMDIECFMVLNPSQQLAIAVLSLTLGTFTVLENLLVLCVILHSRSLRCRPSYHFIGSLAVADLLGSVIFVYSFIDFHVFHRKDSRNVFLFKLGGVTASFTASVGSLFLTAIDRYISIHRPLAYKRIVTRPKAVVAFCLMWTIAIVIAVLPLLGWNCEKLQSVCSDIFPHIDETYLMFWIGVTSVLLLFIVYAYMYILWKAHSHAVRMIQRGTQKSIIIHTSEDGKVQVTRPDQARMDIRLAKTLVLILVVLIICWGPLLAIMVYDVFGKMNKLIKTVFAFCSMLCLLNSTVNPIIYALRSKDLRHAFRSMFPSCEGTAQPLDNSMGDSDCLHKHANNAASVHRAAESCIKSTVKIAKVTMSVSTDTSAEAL

O=C(N[C@H]1CNC1=O)OCCCCC1CCCCC1
t1/2 [1]: 0.2 h
t1/2 [2]: 0.683 h
half-life [3]: < 5 min
half-life [4]: < 5 min
half-life [5]: 0.25 h
Cmax [6]: 1610 ng/mL

CN(C)C(=O)n1nnnc1Cc1ccc(-c2ccccc2)cc1
IC50 [7]: 12.4 nM

COc1cc(NC(=O)C(=O)c2c(C)n(Cc3ccc(Cl)cc3)c3ccc(C)cc23)ccn1
bioavailability [8]: 14 to 21%
IC50 [9]: > 1000 nM
half-life [10]: 17 to 20 h
IC50 [11]: 10 nM

CC(=O)Oc1cccc2c1C(=O)c1c(OC(C)=O)cc(C(=O)O)cc1C2=O [DIACEREIN]
IC50 [12]: 700 to 7200 nM
IC50 [13]: 700 to 7200 nM

CCCCCCCCCCCCCCCCS(=O)(=O)F [HEXADECANESULFONYL FLUORIDE]
IC50 [14]: 13 nM

NC(=O)c1cccc(-c2cccc(OC(=O)NC3CCCCC3)c2)c1 [URB-597]
IC50 [15]: 5 nM

O=C(CCCCCCc1ccccc1)c1ncc(-c2ccccn2)o1
IC50 [15]: 13.4 nM

O=C(OC(C(F)(F)F)C(F)(F)F)N1CCN(Cc2cccc(Oc3ccccc3)c2)CC1
IC50 [16]: 14 nM
IC50 [17]: 3.7 nM
IC50 [18]: 7.6 nM

C=C(OC(=O)N1CCCCC1)c1ccc(-c2ccccc2)cc1
IC50 [19]: 9 nM

S=C=NCCCCCCCCCCc1ccccc1
IC50 [20]: 30 nM
IC50 [11]: > 100000 nM

COc1nn(-c2ccc(NC(=O)OCc3ccccc3)c(C)c2)c(=O)o1
IC50 [21]: 86 nM

CCCCCCCCCCCCCCCN=C=S
IC50 [9]: > 10000 nM
IC50 [22]: > 10000 nM

O=C(CCCCCc1ccccc1)N1CCOC1=O
half-life [1]: 3.33 h
half-life [23]: > 24 h
half-life [24]: > 24 h

O=C(CCc1ccc(-c2ccccc2)cc1)N1CCCC1
IC50 [25]: > 100000 nM
IC50 [26]: 2120 nM

O=C(N1CCC(C(c2ccc3c(c2)OCO3)c2ccc3c(c2)OCO3)CC1)n1cncn1
IC50 [27]: 0.214 nM
Ratio IC50 [28]: 60
IC50 [29]: 0.275 nM
Ratio IC50 [30]: 11200

COc1nn(-c2cccc(Oc3ccccc3)c2)c(=O)o1
IC50 [21]: 6.1 nM
